Measured values: patent US20110245351A1, “MEDICAL ADHESIVE FOR SURGERY” (BAYER MATERIALSCIENCE AG, priority 2008, published 2011)

test: Processing / curing time of the adhesive from prepolymer A-1 and secondary diamine; type: physicochemical; details: 1 g prepolymer A-1 with equivalent quantity of diamine, applied thinly onto tissue
Procedure: 1 g of the prepolymer A-1 were stirred well in a beaker with an equivalent quantity of dimethyl 2,2′-(pentane-1,5-diylbis(azandiyl))bis(4-methylpentanoate). Directly after this, the reaction mixture was applied thinly onto the tissue to be glued. […] After 2 mins, the surface of the adhesive was no longer tacky.

| Curing to a transparent film [min] | Time after which surface of the adhesive was no longer tacky [min] | SMILES |
| --- | --- | --- |
| ≤ 1 | 2 | COC(=O)C(CC(C)C)NCCCCCNC(CC(C)C)C(=O)OC (stereo not drawn) [Example 2, Dimethyl 2,2′-(pentan-1,5-diylbis(azandiyl))bis(4-methylpentanoate)] |

same assay, conditions: diamine as curing agent for prepolymer A-1

| SMILES | Processing time [min] |
| --- | --- |
| COC(=O)C(Cc1ccccc1)NCCCNC(Cc1ccccc1)C(=O)OC (stereo not drawn) | 4 |
| COC(=O)C(Cc1ccccc1)NCCCCCCNC(Cc1ccccc1)C(=O)OC (stereo not drawn) | 4 |
| CCOC(=O)C(C)NCCCCNC(C)C(=O)OCC (stereo not drawn) | 0.7 |

The remaining lines, values ahead:

| Processing time [min] | SMILES |
| --- | --- |
| 4 | COC(=O)C(NCCCNC(C(=O)OC)C(C)C)C(C)C (stereo not drawn) |
| 0.55 | CCOC(=O)C(C)NCCCCCNC(C)C(=O)OCC (stereo not drawn) |
| 3 | CCC(C)C(NCCCNC(C(=O)OC)C(C)CC)C(=O)OC (stereo not drawn) |
| 4 | COC(=O)C(CC(C)C)NCCCCCNC(CC(C)C)C(=O)OC (stereo not drawn) [drawing 17] |
